Reference: PMC6915887, “Inhibition of human carboxylesterases by ginsenosides: structure–activity relationships and inhibitory mechanism” (Chinese Medicine, 2019)

How the values were obtained:
Format in all cases: biochemical
hCES2A [1] = biological target: T1, hCES2A (Homo sapiens, UniProt O00748); assay: Inhibition kinetic analyses of hCES2A-mediated FD hydrolysis in HLM
T1 construct: tissue Bioreclamation IVT lot no; X008067; host or cells: pooled human liver microsomes (50 donors)
T1 sequence (O00748 27-559): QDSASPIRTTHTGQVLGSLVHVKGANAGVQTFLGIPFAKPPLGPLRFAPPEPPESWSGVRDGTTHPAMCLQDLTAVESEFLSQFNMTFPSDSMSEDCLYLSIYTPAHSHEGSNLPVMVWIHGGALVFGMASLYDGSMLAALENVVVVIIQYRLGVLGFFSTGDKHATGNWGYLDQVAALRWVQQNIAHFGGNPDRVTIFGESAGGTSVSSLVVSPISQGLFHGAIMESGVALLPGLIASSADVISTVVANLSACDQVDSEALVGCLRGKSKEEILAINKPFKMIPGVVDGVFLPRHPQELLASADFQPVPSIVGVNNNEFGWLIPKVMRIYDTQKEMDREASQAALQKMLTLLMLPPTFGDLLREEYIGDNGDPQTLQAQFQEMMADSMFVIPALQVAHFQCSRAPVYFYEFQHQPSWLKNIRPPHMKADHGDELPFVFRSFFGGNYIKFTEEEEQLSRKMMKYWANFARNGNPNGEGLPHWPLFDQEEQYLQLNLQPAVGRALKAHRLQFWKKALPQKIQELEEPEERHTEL

hCES1A [2] = biological target: T2, hCES1A (Homo sapiens, UniProt P23141); assay: hCES1A inhibition assay (DME hydrolysis in HLM); conditions: for IC50: HLM as enzyme source, DME hydrolysis as probe reaction, read-out: IC50 (μM) hCES1A;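 as to all read-outs here: Read-out is D-luciferin luminescence formed from DME (3 µM) after 10 min at 37 °C in pH 6.5 PBS, HLM 1 µg/mL, inhibitor preincubated 3 min, oleanic acid as positive control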
T2 construct: tissue Bioreclamation IVT lot no; X008067; host or cells: pooled human liver microsomes (50 donors)
T2 sequence (P23141 18-567): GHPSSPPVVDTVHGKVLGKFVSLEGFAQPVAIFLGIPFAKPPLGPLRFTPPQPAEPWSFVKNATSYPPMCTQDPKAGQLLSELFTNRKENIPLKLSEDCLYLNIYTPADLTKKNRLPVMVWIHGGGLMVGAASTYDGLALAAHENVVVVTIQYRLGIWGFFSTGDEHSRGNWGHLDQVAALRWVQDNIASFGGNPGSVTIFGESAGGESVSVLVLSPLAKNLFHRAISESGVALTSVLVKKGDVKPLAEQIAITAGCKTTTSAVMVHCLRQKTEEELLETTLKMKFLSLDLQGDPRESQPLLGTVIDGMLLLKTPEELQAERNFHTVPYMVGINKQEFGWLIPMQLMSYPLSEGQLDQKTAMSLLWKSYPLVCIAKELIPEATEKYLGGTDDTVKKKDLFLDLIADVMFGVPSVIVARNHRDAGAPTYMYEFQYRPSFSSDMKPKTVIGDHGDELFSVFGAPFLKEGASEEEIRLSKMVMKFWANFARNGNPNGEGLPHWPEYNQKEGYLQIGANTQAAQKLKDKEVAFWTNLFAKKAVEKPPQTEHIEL
Procedure: DME hydrolysis was used as the probe reaction to assay the inhibitory effects of 25 ginsenosides against hCES1A, oleanic acid was used as a positive control of inhibition assays [43]. The incubation system contains 91 μL PBS (0.1 M pH 6.5), 5 μL HLM (1 μg/mL, final concentration) and 2 μL corresponding inhibitor. After pre-incubating the reaction mixture for 3 min at 37 °C, the reaction was started by adding 2 μL DME (3 μM, final concentration) with a total volume of 100 μL, in which the final content of DMSO was limited to 2% (v/v). After incubating for 10 min at 37 °C in a shaking bath, LDR (50 μL, equal volume of the incubation mixture) was added to terminate the reaction. The luminescence signals of D-luciferin (the hydrolytic metabolite of DME) was measured (excitation wavelength 580 nm) by a multi-mode microplate reader (SpectraMax® iD3, Molecular Devices, Austria).

hCES2A [3] = biological target: T1, hCES2A; assay: hCES2A inhibition assay (FD hydrolysis in HLM); conditions: for inhibition of hCES2A-mediated FD hydrolysis (residual activity screen): HLM, ginsenoside 100 μM, result in words; for Specificity (hCES1A/hCES2A): ratio of IC50 values in HLM;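 as to all read-outs here: HLM at 1 µg/mL in 0.1 M PBS pH 7.4, kinetic read at 37 °C every 30 s over 30 min, triplicate runs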
Procedure: The incubation system contains 2 μL HLM (1 μg/mL, final concentration), 194 μL PBS (0.1 M pH 7.4) and 2 μL corresponding inhibitor. […] The kinetic parameters were set at 30 reads, with an interval of 30 s (30 min) and shake during 5 s before the first read at 37 °C.

hCES1A [4] = biological target: T2, hCES1A; assay: Inhibition kinetic analyses of hCES1A-mediated DME hydrolysis in HLM
Procedure: According to the inhibition kinetics of both hCES1A and hCES2A, which were investigated by using varying concentrations of probe substrates in the presence of different concentrations of ginseng compounds (inhibitors), the inhibition constant (Ki) and inhibition kinetic types of ginsenosides were determined. The experimental details used to determine the inhibition constants have been reported previously.
All inhibition assays were performed in triplicate, nonlinear regression was used to determine the IC50 and Ki values with GraphPad Prism 7.0 software (GraphPad Software, Inc., La Jolla, USA).

Structure (SMILES) | Inhibition mode (hCES2A [1]) | IC50 (hCES1A [2]) [µM] | inhibition of hCES2A-mediated FD hydrolysis (residual activity screen) (hCES2A [3]) | Specificity (hCES1A/hCES2A) (hCES2A [3]) | Inhibition mode (hCES1A [4]) | Ki (hCES1A [4]) [nM] | Ki (hCES2A [1]) [nM] | inhibition of hCES1A-mediated DME hydrolysis (residual activity screen) (hCES1A [2]; HLM, ginsenoside 100 μM, result in words) | IC50 (hCES2A [3]; HLM as enzyme source, FD hydrolysis as probe reaction, read-out: IC50 (μM) hCES2A) [µM]
CC(C)=CCC[C@](C)(O)[C@H]1CC[C@]2(C)[C@@H]1CC[C@@H]1[C@@]3(C)CC[C@H](O)C(C)(C)[C@@H]3CC[C@]12C [DM, Dammarenediol II] | Mixed | 1.99 ± 0.21 | strong or moderate inhibition | 3.06 | Competitive | 2100 | – | – | –
CC(C)=CCC[C@](C)(O)[C@H]1CC[C@]2(C)[C@@H]1[C@H](O)C[C@@H]1[C@@]3(C)CC[C@H](O)C(C)(C)[C@@H]3[C@@H](O)C[C@]12C [PPT, protopanaxatriol] | Mixed | > 100 | strong or moderate inhibition | > 116.28 | – | – | – | – | –
CC(C)=CCC[C@](C)(O)[C@H]1CC[C@]2(C)[C@@H]1[C@H](O)C[C@@H]1[C@@]3(C)CC[C@H](O)C(C)(C)[C@@H]3CC[C@]12C [PPD, protopanaxadiol] | Mixed | > 100 | strong or moderate inhibition | > 75.18 | – | – | – | – | –
CC(C)=CCC[C@](C)(O[C@@H]1O[C@H](CO)[C@@H](O)[C@H](O)[C@H]1O)C1CC[C@]2(C)C1CCC1[C@@]3(C)CC[C@H](O)C(C)(C)C3CC[C@]12C (stereo partly drawn) [DMG, 20S-O-β-(D-glucosyl)-dammarenediol II] | Mixed | 1.76 ± 0.28 | strong inhibition | – | Competitive | 2400 | 2830 | strong inhibition | 1.06 ± 0.21
